# Assay results as given in patent publication US9157088B2, “Transferases, epimerases, polynucleotides encoding these and uses thereof” (priority 2007, dated 2015).
# T1: L-Galactose-1-Phosphate phosphatase (Arabidopsis thaliana, UniProt Q9M8S8)
# T1 construct: made in house; host or cells: E. coli
# T1 sequence (Q9M8S8 1-271): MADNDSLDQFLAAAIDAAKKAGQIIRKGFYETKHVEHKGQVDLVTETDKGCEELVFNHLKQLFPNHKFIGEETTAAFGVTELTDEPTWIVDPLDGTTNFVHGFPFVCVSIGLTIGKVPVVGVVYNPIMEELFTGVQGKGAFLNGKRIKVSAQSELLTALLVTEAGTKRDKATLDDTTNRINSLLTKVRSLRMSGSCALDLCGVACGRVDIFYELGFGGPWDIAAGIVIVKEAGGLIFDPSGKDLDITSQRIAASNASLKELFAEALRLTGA
# Columns and labels:
# [1] = tested on: L-Galactose dehydrogenase; conditions: cited from earlier work
# [2] = target: T1, L-Galactose-1-Phosphate phosphatase; conditions: cited from earlier work
# [3] = target: kiwifruit GDP-L-Galactose Guanyltransferase EST 319998 (Actinidia chinensis, UniProt A0A2R6QD99); experiment: Continuous coupled assay of transferase activity with guanyl acceptors; conditions: sugar phosphate as guanyl acceptor, epimerase generated substrate
# Method: (§1) Expression of genes in E. coli. The EST 319998 from young fruit of Actinidia chinensis and At4g26850 were each cloned into pET30A (Novagene, USA), their sequence checked and expressed in E. coli. The N terminal His6 tag was used to purify the protein. An empty vector control was expressed and purified in parallel. Techniques were essentially as described earlier (Laing et al., 2004).
# L-Galactose dehydrogenase (Gen Bank accession AA018639 (EST 56121), 1.5 ug/assay) was cloned from an EST derived from an A. deliciosa (kiwifruit) shoot bud library with a maltose binding protein presequence and assayed as described previously (Laing et al., 2004). L-Galactose-1-Phosphate phosphatase was cloned from Arabidopsis thaliana (At3g02870, 3.1 ug/assay) and assayed as described (Laing et al., 2004). GDP-D-Mannose 3′,5′-Epimerase (198296) was cloned from dormant kiwifruit (A. deliciosa) buds three days after hydrogen cyanamide treatment and assayed as described (Wolucka et al., 2001). The former two enzymes are highly specific as to their substrates (Laing et al., 2004; Laing et al., 2004).
# The assay for GDP-L-Galactose-1-Phosphate Guanyltransferase was run in 20 mM TrisCl, pH 8.0, GDP-L-Galactose, with 1 mM D-Mannose-1-Phosphate. […] In the latter case, 0.21 mg of epimerase was incubated with GDP-D-Mannose in 20 mM Tris Cl pH 8 in a total volume of 400 μL (see Wolucka et al., 2001) for 30 minutes at 20 C and then used directly in the assay at a 1 to 20 dilution. Assays were either terminated after 10 minutes by heating to 100 C for three minutes, or directly coupled to the phosphatase and L-Galactose dehydrogenase to measure product formation during the assay. Heat terminated assays were cooled on ice, centrifuged to remove precipitated protein and L-Galactose assayed using the coupling enzymes described above (see also (Laing et al., 2004)).
# The applicants used two assays to characterise the enzyme, using two sources of the substrate GDP-L-Galactose. The first assay used the E. coli expressed coupling enzymes L-Galactose-1-Phosphate phosphatase and L-Galactose dehydrogenase. […] The applicants either measured the product formed by adding the coupling enzymes in the assay and measuring the time course of NADH formed, or by stopping the reaction after 10 minutes by boiling for 3 minutes and centrifuging. To this latter fixed time assay, the applicants then either adding coupling enzymes to measure L-Galactose production or using the LCMS to measure the products. The LCMS was used only to confirm the results of the coupled enzyme reaction and to measure the reverse reaction.
# [4] = Transferase activity of E. coli expressed enzymes (coupled reaction and LCMS); type: biochemical; conditions: enzyme expressed in E. coli, His tag purified
# Method: as §1, with “2004). In much of this work the His-protein was further purified on a 5 mL HiTrap Q FF column (GE Healthcare), and identical results were obtained with both preparations.” for “2004).”
# The assay for GDP-L-Galactose-1-Phosphate Guanyltransferase was run in 20 mM TrisCl, pH 8.0, GDP-L-Galactose, with 1 mM D-Mannose-1-Phosphate. GDP-L-Galactose was either used directly from the Glycoteam product (in which case high backgrounds were observed due to contaminating L-Galactose-1-Phosphate) or GDP-L-Galactose was generated using the epimerase. In the latter case, 0.21 mg of epimerase was incubated with GDP-D-Mannose in 20 mM Tris Cl pH 8 in a total volume of 400 μL (see Wolucka et al., 2001) for 30 minutes at 20 C and then used directly in the assay at a 1 to 20 dilution. Assays were either terminated after 10 minutes by heating to 100 C for three minutes, or directly coupled to the phosphatase and L-Galactose dehydrogenase to measure product formation during the assay. Heat terminated assays were cooled on ice, centrifuged to remove precipitated protein and L-Galactose assayed using the coupling enzymes described above (see also (Laing et al., 2004)). Assays for L-Galactose were linear with added L-Galactose-1-Phosphate over the range measured. Backgrounds were run using the empty vector control, which gave the same result as a boiled enzyme control. […]
# The applicants used two assays to characterise the enzyme, using two sources of the substrate GDP-L-Galactose. […] The applicants either measured the product formed by adding the coupling enzymes in the assay and measuring the time course of NADH formed, or by stopping the reaction after 10 minutes by boiling for 3 minutes and centrifuging. […]
# Chain of kiwifruit GDP-L-Galactose Guanyltransferase EST 319998 (A0A2R6QD99 entry or part of it): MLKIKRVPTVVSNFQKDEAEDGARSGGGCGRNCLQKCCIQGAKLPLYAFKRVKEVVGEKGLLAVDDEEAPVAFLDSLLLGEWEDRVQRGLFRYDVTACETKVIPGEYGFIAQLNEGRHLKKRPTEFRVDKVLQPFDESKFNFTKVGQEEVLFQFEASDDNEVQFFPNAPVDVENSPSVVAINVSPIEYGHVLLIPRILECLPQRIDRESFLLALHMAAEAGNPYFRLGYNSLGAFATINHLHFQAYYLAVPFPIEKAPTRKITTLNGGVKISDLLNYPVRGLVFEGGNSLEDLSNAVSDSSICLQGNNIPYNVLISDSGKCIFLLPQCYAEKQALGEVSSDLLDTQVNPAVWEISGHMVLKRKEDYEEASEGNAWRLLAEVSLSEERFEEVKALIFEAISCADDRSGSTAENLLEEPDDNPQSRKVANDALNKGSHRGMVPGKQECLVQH
molecule,measurement,setting,value
O=C[C@H](O)[C@@H](O)[C@@H](O)[C@H](O)CO [D-Galactose],reaction with L-Galactose dehydrogenase,[1],not reacting
O=C[C@@H](O)[C@@H](O)[C@H](O)[C@H](O)CO [D-Mannose],reaction with L-Galactose dehydrogenase,[1],not reacting
O=P(O)(O)OC1[C@@H](O)[C@H](O)C(O)[C@H](O)[C@@H]1O (stereo partly drawn) [L-Myoinositol-1-P],dephosphorylation by L-Galactose-1-Phosphate phosphatase,[2],significantly dephosphorylating
same,% of D-mannose-1P,[3],126%
same,Rate,[3]; N = 6,0.42 nmoles/sec/ug protein
"At4g26850: GDP-L-Galactose Guanyltransferase, VTC2 from Arabidopsis thaliana (protein, listed as Arabidopsis thaliana) MLKIKRVPTVVSNYQKDDGAEDPVGCGRNCLGACCLNGARLPLYACKNLVKSGEKLVISHEAIEPPVAFLESLVLGEWEDRFQRGLFRYDVTACETKVIPGKYGFVAQLNEGRHLKKRPTEFRVDKVLQSFDGSKFNFTKVGQEELLFQFEAGEDAQVQFFPCMPIDPENSPSVVAINVSPIEYGHVLLIPRVLDCLPQRIDHKSLLLAVHMAAEAANPYFRLGYNSLGAFATINHLHFQAYYLAMPFPLEKAPTKKITTTVSGVKISELLSYPVRSLLFEGGSSMQELSDTVSDCCVCLQNNNIPFNILISDCGRQIFLMPQCYAEKQALGEVSPEVLETQVNPAVWEISGHMVLKRKEDYEGASEDNAWRLLAEASLSEERFKEVTALAFEAIGCSNQEEDLEGTIVHQQNSSGNVNQKSNRTHGGPITNGTAAECLVLQ",GDP-L-Galactose Guanyltransferase activity of the expressed enzyme,[4],showed transferase activity
same,GDP-L-Galactose Guanyltransferase activity of the expressed enzyme,[4]; listed as At4g26,could catalyse the conversion of GDP-L-Galactose to L-Galactose-1-P
